Measured values from patent publication US8633199B2, “Medicine consisting of concomitant use or combination of DPP-IV inhibitor and other diabetic medicine” (Sanwa Kagaku Kenkyusho Co., Ltd., priority 2008, dated 2014).

Columns and labels:
Assay type in all cases: in vivo, rat
[1] = test system: Zucker fatty rats; test: Oral sucrose loading test, plasma active GLP-1 (ELISA); details: oral 3 mg/kg each drug 15 min before sucrose loading, AUC 0-120 min, FIG. 1
Procedure: Effects of compound (I) alone, Miglitol alone and concomitant use of compound (I) and Miglitol on plasma concentration of active GLP-1 during oral sucrose loading test in Slc: Zucker-fa/fa rats (hereinafter abbreviated as Zucker fatty rats)
An operation to insert a polyurethane catheter was performed on the right jugular vein of a Zucker fatty rat (9 weeks old, male, Japan SLC, Inc.) which is an obesity-insulin resistant model, and experiments were performed in the following four groups.
(§1) (1) Control group: purified water was administered at a ratio of 5 ml/kg
(§2) (2) Compound (I) group: the compound (I) dissolved in purified water was administered at a dose of 3 mg/kg (5 ml/kg)
(§3) (3) Miglitol group: Miglitol dissolved in purified water was administered at a dose of 3 mg/kg (5 ml/kg)
(§4) (4) Concomitant use group: the compound (I) and Miglitol dissolved in purified water were administered at respective dose of 3 mg/kg (5 ml/kg)
Purified water, the compound (I) and Miglitol were orally administered respectively to the Zucker fatty rats fasted overnight in each group as described in (1) to (4), and after 15 minutes, a 30% aqueous sucrose solution was administered at a ratio of 10 ml/kg. […] The concentration of an active GLP-1 in the obtained plasma was measured by an enzyme immunoassay (hereinafter abbreviated as ELISA) (GLUCAGON-LIKE PEPTIDE-1 (ACTIVE) ELISA KIT, LINCO Research, Inc., US). […]

[2] = test system: Zucker fatty rats; test: Liquid diet loading test, plasma GIP, glucose and insulin; details: oral 3 mg/kg each drug 15 min before liquid diet loading; for increase in the plasma glucose concentration (AUC): AUC 0-60 min, FIG. 3; for increase in the GIP concentration in plasma (AUC, total GIP): AUC 0-120 min, FIG. 2
Procedure: Effects of compound (I) alone, Miglitol alone and concomitant use of compound (I) and Miglitol on GIP, glucose and insulin concentrations in plasma during liquid diet loading test in Crlj: ZUC-Lepr^fa Genotype: fa/fa rats (hereinafter abbreviated as Zucker fatty rats)
An operation to insert a polyurethane catheter was performed on the right jugular vein of a Zucker fatty rat (8 weeks old, male, Charles River Laboratories Japan, Inc.), which is an obesity and insulin-resistant model, and experiments were performed in the following four groups.
as §1, §2, §3, §4
Purified water, the compound (I) and Miglitol were orally administered respectively to the Zucker fatty rats fasted overnight in each group as described in (1) to (4), and after 15 minutes, a liquid diet (trade mark: ENSURE H, Meiji Dairies Corporation, Japan) was administered at a ratio of 10 ml/kg to carry out a diet loading test. Blood was collected from the catheter immediately before loading and after loading of the liquid diet, and centrifuged at 4° C., 3000 rpm for 10 minutes to obtain plasma. The GIP concentration in the obtained plasma was measured by an ELISA (RAT/MOUSE GIP (TOTAL) ELISA KIT, LINCO Research, Inc., US), and the plamsa glucose and insulin concentrations was measured by Glucose C2 (Wako Pure Chemical Industries, Ltd., Japan) and ELISA (Rat Insulin ELISA Kit, Shibayagi, Co., Ltd., Japan), respectively. Based on the measured GIP concentration in plasma, AUC from immediately before the loading of the liquid diet to 120 minutes after the loading was calculated. Based on the measured plasma glucose and insulin concentrations, AUC from immediately before the loading of the liquid diet to 60 minutes after the loading was calculated. […] The result of the GIP concentration in plasma is shown in FIG. 2, the result of the plasma glucose level is shown in FIG. 3 and the result of the plasma insulin concentration is shown in FIG. 4.

[3] = test system: ZDF rats; test: Oral corn starch loading test, plasma active GLP-1, glucose and insulin; details: oral compound (I) 3 mg/kg, Metformin 300 mg/kg, 15 min before corn starch loading, AUC 0-180 min; for increase of the concentration of the active GLP-1 in the plasma (AUC of change): FIG. 5; for plasma glucose elevation (AUC): FIG. 6
Procedure: An operation to insert a polyurethane catheter was performed on the right jugular vein of a ZDF rat (13 weeks old, male, Charles River Laboratories Japan, Inc.), and experiments were performed in the following four groups. (1) Control group: purified water was administered at a ratio of 5 ml/kg (2) Compound (I) group: the compound (I) dissolved in purified water was administered at a dose of 3 mg/kg (5 ml/kg) […] Metformin dissolved in purified water was administered at a dose of 300 mg/kg (5 ml/kg) (4) Concomitant use group: the compound (I) and Metformin dissolved in purified water were administered at respective doses of 3 mg/kg (5 ml/kg) and 300 mg/kg (5 ml/kg) […] Blood was collected from the catheter immediately before administration and after administration of corn starch, and centrifuged at 4° C., 3000 rpm for 10 minutes to obtain plasma. The concentration of the active GLP-1 in the obtained blood plasma was measured by ELISA (GLUCAGON-LIKE PEPTIDE-1 (ACTIVE) ELISA KIT, LINCO Research, Inc., US), the plasma glucose and insulin concentrations of the obtained plasma was measured by Glucose C2 (Wako Pure Chemical Industries, Ltd., Japan) and ELISA (Rat Insulin ELISA Kit, Shibayagi, Co., Ltd., Japan), respectively. Based on the measured concentration of the active GLP-1 in the plasma, the amount of change relative to the concentration immediately before starch administration was obtained. Based on the amount of change relative to the plasma active GLP-1, glucose and insulin concentrations, AUC from immediately before the administration of starch to 180 minutes after the administration was calculated. The result of the plasma active GLP-1 concentration is shown in FIG. 5, the result of the plasma glucose concentration is shown in FIG. 6 and the result of the plasma insulin concentration is shown in FIG. 7.

[4] = test system: Wistar rats; test: Oral corn starch loading test, plasma GIP (ELISA); details: oral compound (I) 3 mg/kg, Metformin 300 mg/kg, 30 min before corn starch loading, AUC 0-180 min, FIG. 8
Procedure: Effects of compound (I) alone, Metformin alone and concomitant use of compound (I) and Metformin on concentration of GIP in plasma during oral corn starch loading test in Slc: Wistar/ST rats (hereinafter abbreviated as Wistar rats) An operation to insert a polyurethane catheter was performed on the right jugular vein of a Wistar rat (9 weeks old, male, Japan SLC, Inc.), and experiments were performed in the following four groups. (1) Control group: purified water was administered at a ratio of 5 ml/kg (2) Compound (I) group: the compound (I) dissolved in purified water was administered at a dose of 3 mg/kg (5 ml/kg) […] Metformin dissolved in purified water was administered at a dose of 300 mg/kg (5 ml/kg) (4) Concomitant use group: the compound (I) and Metformin dissolved in purified water were administered at respective doses of 3 mg/kg (5 ml/kg) and 300 mg/kg (5 ml/kg) […] Blood was collected from the catheter immediately before administration and after administration of corn starch, and centrifuged at 4° C., 3000 rpm for 10 minutes to obtain plasma. The concentration of the GIP in the obtained plasma was measured by ELISA (RAT/MOUSE GIP (TOTAL) ELISA KIT, LINCO Research, Inc., US). Based on the measured GIP concentration, AUC from immediately before the administration of starch to 180 minutes after the administration was calculated.

OCCN1C[C@H](O)[C@@H](O)[C@H](O)[C@H]1CO [Miglitol]
increase of the concentration of the active GLP-1 in the plasma (AUC of change) [1]: no significant difference
increase in the plasma glucose concentration (AUC) [2]: no significant difference
increase in the GIP concentration in plasma (AUC, total GIP) [2]: showed a tendency of suppressing

Cc1cc2ncc(C(=O)NCC(C)(C)NCC(=O)N3CCC[C@H]3C#N)cn2n1 [compound (I), (S)—N-(2-(2-(2-cyanopyrrolidin-1-yl)-2-oxoethylamino)-2-methylpropyl)-2-methylpyrazolo[1,5-a]pyrimidine-6-carboxamide]
increase of the concentration of the active GLP-1 in the plasma (AUC of change) [1]: increased the concentration significantly
increase of the concentration of the active GLP-1 in the plasma (AUC of change) [3]: increased the concentration significantly
plasma glucose elevation (AUC) [3]: no significant difference
increase in the concentration of GIP in plasma (AUC, total GIP) [4]: no change
increase in the plasma glucose concentration (AUC) [2]: no significant difference
increase in the GIP concentration in plasma (AUC, total GIP) [2]: no change

CN(C)C(=N)N=C(N)N [Metformin]
increase of the concentration of the active GLP-1 in the plasma (AUC of change) [3]: no significant difference
plasma glucose elevation (AUC) [3]: significantly suppressed
increase in the concentration of GIP in plasma (AUC, total GIP) [4]: significantly suppressed
